These results are taken from the METLIN SMRT retention time set (Domingo-Almenara et al. 2019).

This series can be described thus: gradient 5% acetonitrile 3 min, to 50% in 2 min, to 85% in 15 min, held 3 min, 100 µL/min. The note with it: column: Zorbax Extend-C18 2.1 x 50 mm; eluents: water / acetonitrile, 0.1% formic acid. In short, it runs like this: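 Pure standards were run in mixtures of ~100 molecules by HPLC coupled to a quadrupole time-of-flight mass spectrometer. The column was a Zorbax Extend-C18 (2.1 × 50 mm, 1.8 μm) at 100 μL/min, with water and acetonitrile each containing 0.1% formic acid, in positive and negative ionization mode. Dead and dwell volumes were 40 μL and 900 μL. Retention time was taken from computationally picked adduct peaks, each manually inspected, with data collected over 3 months.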
As to `Cc1nn(-c2cc(N(C)C)ncn2)c(C)c1CCC(=O)NCc1ccccc1`, the RP-LC retention time turned out to be 716 s. In turn, `CCCOc1nc2ccccc2nc1N1CCCC(C(=O)NCc2ccco2)C1` (centres undefined) showed an RP-LC retention time of 1100 s. With `COc1cc(CNC(=O)c2ccc(Cc3c(C)noc3C)o2)cc(OC)c1OC`, the RP-LC retention time amounted to 744 s. In turn, `COc1ccc(-c2csc(CN3CCN(C(=O)C4CC4)CC3)n2)cc1` came in with an RP-LC retention time of 599 s. `Cc1ccc(-c2[nH]ncc2CN2CCC3(CCC3O)CC2)cc1` (centres undefined) yielded an RP-LC retention time of 577 s.

`COc1ccc(-c2cn3cccnc3n2)cc1NC(=O)c1cccc(OC)c1OC` registered an RP-LC retention time of 718 s. Take `CCS(=O)(=O)Nc1ccc(C2(C(=O)NCc3cccs3)CCCCC2)cc1`: the RP-LC retention time came to 913 s. Then `CCCn1ccc2sc(C)c(C(=O)N3CCN(c4ccccn4)CC3)c2c1=O`, with 593 s; and `Cc1ccc(Nc2c(-c3ccc(C)cc3)nc3cnccn23)cc1`, with 969 s; and `CCc1ccc(NC(=O)Cn2c(=O)c3cc(-c4ccco4)nn3c3ncccc32)cc1`, with 882 s. Under `COc1cc(Cl)c(C)cc1NC(=O)C1CCCN(c2ncnc3c2nc2n3CCCCC2)C1` (centres undefined) stands 996 s; under `O=C(Cc1ccc(F)cc1)N1CCN(C(=O)c2nnn3c2COC(c2ccccc2)C3)CC1` (centres undefined), 864 s. Consider `COc1ccc(-n2nc(C(F)(F)F)cc2-c2ccc(Cl)cc2)cc1`, for which the RP-LC retention time was found to be 1250 s.

With `O=C(c1cccc(-n2cnnn2)c1)N1CC(c2nc(-c3ccccn3)no2)C1`, the RP-LC retention time is 648 s. Consider `CCOc1ccc(-c2cc3c(=O)n(Cc4nc(-c5ccc(OCC)c(OC)c5)no4)ncn3n2)cc1`, for which the RP-LC retention time amounted to 1150 s. Then `O=C(COc1ccc(Br)cc1)NCC(c1cccs1)N1CCCC1` (centres undefined), with 672 s; and `Cc1cc(C)cc(NC(=O)Cn2c(=O)nc(N3CCC(C)CC3)c3ccccc32)c1`, with 925 s; and `N#Cc1cnn2ccn(C3OC(CO)C(O)C3O)c12` (centres undefined), with 614 s. On to `O=C(c1ccc(Cl)cc1)N1CCN(c2cnn3cnnc3c2)CC1`, for which the RP-LC retention time amounted to 634 s. `CC(C)CC(=O)N1CCCCCCNC(=O)[C@@H]2CCCC[C@@H]21` yielded an RP-LC retention time of 833 s. As for `CC(C)CCNC(=O)c1ccc2c(c1)nc(Nc1n[nH]c3ccc(-c4ccccc4OC(F)(F)F)cc13)n2C1CCC(O)CC1` (centres undefined), the RP-LC retention time worked out at 957 s.

In turn, `O=C(CCCSc1ccc(NC(=O)c2ccc(F)cc2)nn1)Nc1cccnc1` yielded an RP-LC retention time of 586 s.

The molecule `CCNC(=O)c1[nH]c2ccc(F)cc2c1N1CCCC1=O` displayed an RP-LC retention time of 676 s. Consider `Cc1cc2[nH]c(C(=O)Nc3ccc(C)c(F)c3)c(CN3CCOCC3)c2s1`, for which the RP-LC retention time came to 738 s. `CCCNC(=O)c1nc(C)n(C2CCN(S(C)(=O)=O)CC2)c1C`: the RP-LC retention time stood at 542 s. For `CCN1CCN(C(=O)Nc2ccc(Br)cc2F)c2cccnc21`, the RP-LC retention time came out at 659 s. Molecule `COc1cc(OC)cc(N2N=NC3C(=O)N(c4ccc(F)cc4)C(=O)C32)c1` (centres undefined) gave an RP-LC retention time of 907 s.

With `Cc1cc(-c2nnc(-c3ccccc3)o2)c(C)n1CC(=O)Nc1ccc(F)c(F)c1`, the RP-LC retention time was 1010 s. For `COCC1(O)CCOC2(CCN(Cc3ccc(C)cc3C)CC2)C1` (centres undefined), the RP-LC retention time came out at 559 s. `COc1ccc(C)cc1NC(=O)Cn1nc2cc(C)nc(-c3ccc(F)cc3)n2c1=O` registered an RP-LC retention time of 912 s. For the molecule `CC(=O)N(C1CCOCC1)C1CCN(C(=O)c2ccc(C)s2)CC1`, the RP-LC retention time stood at 673 s. In the case of `Cc1nnc(-c2ccc3ccn(CC(=O)NCC(C)c4ccccc4)c3c2)o1` (centres undefined), the RP-LC retention time was found to be 793 s. With `CS(=O)(=O)Nc1ccc(C2(C(=O)NC3CCCC3)CCCCC2)cc1`, the RP-LC retention time was found to be 634 s. Then `COc1ccc(OCC(=O)N2CCN(c3cc(C)n4c(C)nnc4n3)CC2)cc1`, with 599 s; and `CCOc1ccc(S(=O)(=O)N2CCC(C(=O)NCCC3=CCCCC3)CC2)cc1`, with 953 s. Molecule `Cc1cc(C(=O)N2CCCn3nc(-c4cccs4)cc3C2)no1` had an RP-LC retention time of 791 s. On to `COc1ccccc1NC(=O)c1cccc(N2CCNC(c3ccccc3)C2)n1` (centres undefined), for which the RP-LC retention time is 693 s. Under `COc1ccc(C)cc1NC(=O)C1CCN(S(=O)(=O)c2ccc3c(c2)sc(=O)n3C)CC1` stands 827 s. Under `COCCOC(=O)C1=C(C)NC2=C(C(=O)C(C(=O)OC)C(C)C2)C1c1cccc(Cl)c1` (centres undefined) stands 899 s.

For the molecule `O=C(Cn1cccc1-c1nc(-c2ccc3c(c2)OCO3)no1)Nc1ccccc1Cl`, the RP-LC retention time amounted to 1100 s. Take `O=C(Nc1ccc(F)cc1F)C1CCCN(S(=O)(=O)c2c[nH]c(C(=O)N3CCCCCC3)c2)C1` (centres undefined): the RP-LC retention time amounted to 897 s. Then `Cc1cc(-c2csc(Nc3ccc(N(C)C)cc3)n2)ccc1F`, with 767 s. In the case of `Cc1cc(-c2nnc(-c3ccc(F)cc3)o2)c(C)n1CC(=O)NCc1ccccc1F`, the RP-LC retention time was determined as 950 s. In turn, `O=C(NC1(c2nc(-c3ccncc3)no2)CCCCC1)c1ccc(C(F)(F)F)cc1` had an RP-LC retention time of 1030 s.

Molecule `Cc1ccccc1CC(=O)NC(C(=O)Nc1nc2ccccc2[nH]1)C(C)C` (centres undefined) displayed an RP-LC retention time of 730 s. Under `CC1CCN(c2ccc(NC(=O)CN3C(=O)CN(C)C(=O)c4ccccc43)cc2)CC1` stands 671 s; under `CCN1C(=O)c2cc(S(=O)(=O)Nc3cccc(C)c3)ccc2Oc2cccnc21`, 1010 s. The molecule `CCn1cnc2cc(-c3noc(C4CC(=O)N(c5cccc(Cl)c5)C4)n3)ccc21` (centres undefined) showed an RP-LC retention time of 731 s. Under `O=C(Cn1cnc2nc3c(cc2c1=O)CCCC3)Nc1ccc(Cl)cc1F` stands 778 s; under `COc1ccc(-c2nnc(SCc3ccc(Br)cc3)o2)c(OC)c1`, 1120 s. As to `COc1cc(NC(=O)NC2CCN(c3cc(C)cc(C)c3)C2=O)cc(OC)c1` (centres undefined), the RP-LC retention time worked out at 818 s. As for `CCOc1ccc(-c2cc3c(=O)n(CC(O)c4ccc(C(C)C)cc4)ccn3n2)cc1` (centres undefined), the RP-LC retention time was 1120 s. Then `O=C(N[C@@H]1CN(c2ncccn2)C[C@H]1CO)c1ccc2c(c1)OCO2`, with 606 s; and `COc1ccc(C2CCCN2C(=O)Cn2nc(C(F)(F)F)cc2C)cc1` (centres undefined), with 953 s.

In turn, `Cc1ccc(CNC(=O)c2cn(-c3ccc(NC(=O)C4CC4)cn3)cn2)cc1C` came in with an RP-LC retention time of 818 s. Turning to `C=C1C(=O)O[C@@H]2/C=C(\C)CCC=C(C)CC[C@@H]12`, the RP-LC retention time was determined as 1090 s.

For the molecule `Cc1cc(NC(=O)c2ccccc2Br)nc2c1c(=O)oc1ccccc12`, the RP-LC retention time stood at 1010 s. `COc1ccc(-c2nc3cccnc3n2C2CCN(C(=O)c3ccc4c(c3)OCO4)C2)cc1` (centres undefined) gave an RP-LC retention time of 716 s. In turn, `CCOC(=O)CSc1nc2ccccc2[nH]1` returned an RP-LC retention time of 596 s.
